In patent publication US8178555B2, “Apoptosis signal-regulating kinase 1 inhibitors” (Takeda Pharmaceutical Company Limited, priority 2009, dated 2012) one finds IC50 data, which are given here for 21 molecules.

Where only a bound is given, the exact number is not on record here.

In one assay the target is T1, ASK1 (Homo sapiens, UniProt Q99683).
T1 construct: a 2.2 kb DNA fragment containing an ASK1 gene was recovered from the gel; FLAG (N); made in house; host or cells: Sf-21 insect cells (recombinant baculovirus, pFASTBAC1)
T1 sequence (Q99683 649-1374 limits assumed): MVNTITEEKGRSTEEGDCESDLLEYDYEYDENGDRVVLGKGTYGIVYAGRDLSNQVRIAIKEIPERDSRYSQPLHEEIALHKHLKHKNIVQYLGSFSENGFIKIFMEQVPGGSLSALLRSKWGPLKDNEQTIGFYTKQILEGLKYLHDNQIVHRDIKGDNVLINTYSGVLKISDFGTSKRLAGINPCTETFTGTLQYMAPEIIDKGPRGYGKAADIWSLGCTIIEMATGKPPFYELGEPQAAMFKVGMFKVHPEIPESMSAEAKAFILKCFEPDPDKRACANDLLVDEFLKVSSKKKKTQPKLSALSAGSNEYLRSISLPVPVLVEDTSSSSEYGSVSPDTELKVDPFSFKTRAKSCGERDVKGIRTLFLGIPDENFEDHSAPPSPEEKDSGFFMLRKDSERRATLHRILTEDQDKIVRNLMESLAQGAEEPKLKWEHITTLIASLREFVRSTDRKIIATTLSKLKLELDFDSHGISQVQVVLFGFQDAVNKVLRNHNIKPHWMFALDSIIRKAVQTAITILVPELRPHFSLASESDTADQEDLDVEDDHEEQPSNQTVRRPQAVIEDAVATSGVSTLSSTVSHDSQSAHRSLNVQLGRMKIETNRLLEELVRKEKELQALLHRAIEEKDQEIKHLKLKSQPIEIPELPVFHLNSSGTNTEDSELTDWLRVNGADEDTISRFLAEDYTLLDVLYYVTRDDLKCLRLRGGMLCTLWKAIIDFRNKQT
In words: Scintillation assay for measuring the inhibitory effect against ASK1 (myelin basic protein substrate, [γ-32P]ATP). It is filed as biochemical. The note with it: Table 1, assay of Example A and B, read-out: Enzyme Activity IC50. The source says:
The inhibitory effect of the compound of the invention on ASK1 may be evaluated by evaluating the phosphorylating activity of the enzyme on a known substrate with or without the presence of the test compound. Example B provides such an assay where myelin basic protein (Wako) is used as substrate and detection is by scintillation counting. It should be understood other substrates and detection mechanism may be used. A commercially available a kit, Cisbio's HTRF® KinEASE™ STK kit, has shown to be useful for evaluating ASK1 activity. The assay uses an anti-phosphoseric specific, Eu3+-Cryptate labeled antibody to mark the phosphorylated product of ASK1 on a biotinylated kinase substrate, and detection is by time resolved fluorescence using XL665 labeled streptavidin. The fluorescence intensity is proportional to the amount of product formation. Example C provides the assay protocol.
Cloning of cDNA encoding human ASK1 was conducted by PCR using primers, 5′-[…] […]-3 (SEQ ID NO: 1) and 5′-AAAGCGGCCGCTCAA […]-3′ (SEQ ID NO: 2), from human heart cDNA library (Becton, Dickinson and Company). The PCR product was subjected to agarose gel (1%) electrophoresis, a 2.2 kb DNA fragment containing an ASK1 gene was recovered from the gel, and then digested with restriction enzymes, NotI and SalI, and inserted into a plasmid pFASTBAC1 (Invitrogen) to prepare a plasmid pFB-ASK1. The insert was verified by sequencing. Recombinant baculovirus was prepared according to the procedure of the Bac-to-Bac baculovirus expression system (Invitrogen).
Sf-21 cells were seeded to achieve 1×10^6 cells/mL in 100 mL of Sf-900 II SFM medium (Invitrogen) which contains 10% fetal calf serum and then cultured at 27° C. for 24 hrs. To express ASK1 in cells, 0.15 mL of the recombinant baculovirus virus stock was added to cells, and the then cultured for 60 hrs. The cells were separated from the culture solution by centrifugation at 3000 rpm for 10 min and washed once with PBS. The cells were suspended in 10 mL of lysis buffer (25 mM HEPES (pH 7.5), 1% Triton X, 130 mM NaCl, 1 mM EDTA, 1 mM DTT, 25 mM β-glycerophosphate, Protease inhibitor complete (Roche), 1 mM sodium orthovanadate) and ruptured by four times of treatment with a homogenizer (POLYTRON) at 20000 rpm for 30 seconds. Active ASK1 protein was purified from a supernatant obtained by centrifugal separation at 40000 rpm for 45 min using anti-FLAG M2 Affinity Gel (Sigma).
The test compounds (2.5 μL) dissolved in DMSO were added to wells containing 37.5 μl of the reaction solution (25 mM HEPES (pH 7.5), 10 mM magnesium acetate, 1 mM DTT) including 30 ng of active ASK1 protein and 1 μg of myelin basic protein (Wako), and incubated at room temperature for 5 min. To start the reaction, 10 μL of ATP solution (2.5 μM ATP, 0.1 μCi [γ-^32P]ATP) was added to wells. After incubating at room temperature for 30 min, the reaction was terminated by adding 50 μl of 20% TCA solution. The reaction solution was incubated at 4° C. for 30 min and an acid-insoluble fraction was transferred onto a GF/C filter (Packard) with Cell Harvester (Packard), and washed with 250 mM phosphoric acid. After drying at 45° C. for 60 min., 40 μL of Microscint 0 (Packard) was added and the radioactivity was measured with TopCount (Packard). The concentrations (IC50 value) of the test compounds necessary for 50% inhibition of kinase activity were calculated by PRISM 3.0 (Graphpad Software).
The enzyme activities of the compounds of the present invention against ASK1 were determined using the assay disclosed in Example A and B. The resulted IC50 values are reported in Table 1.
A word on the IC50: it is the concentration that gives 50% inhibition. For the molecule `CC(C)(C)c1ccc(C(=O)Nc2nc3ccc(-n4ccnc4)nc3s2)cc1` [Compound 11, N-(5-(1H-imidazol-1-yl)thiazolo[5,4-b]pyridin-2-yl)-4-tert-butylbenzamide], the IC50 lay in the range of 100 to 1000 nM. On to `CC(C)(C)c1ccc(C(=O)Nc2nc3ccc(-c4cn[nH]c4)nc3s2)cc1` [Compound 9, N-(5-(1H-pyrazol-4-yl)thiazolo[5,4-b]pyridin-2-yl)-4-tert-butylbenzamide], for which the IC50 was below 100 nM. For `CC(C)(O)c1ccc(C(=O)Nc2nc3ccc(-c4ccc(O)nc4)nc3s2)cc1` [Compound 35, 4-(2-hydroxypropan-2-yl)-N-(5-(6-hydroxypyridin-3-yl)thiazolo[5,4-b]pyridin-2-yl)benzamide], the IC50 was below 100 nM. Same read-out and setting: as for `O=C(Nc1nc2ccc(-c3cn[nH]c3)nc2s1)c1ccc(C2CC2)cc1` [Compound 5, N-(5-(1H-pyrazol-4-yl)thiazolo[5,4-b]pyridin-2-yl)-4-cyclopropylbenzamide], the figure is above 1000 nM; as for `CC(C)(O)c1ccc(C(=O)Nc2nc3ccc(N4CC[C@@H](O)C4)nc3s2)cc1` [Compound 36, (R)-4-(2-hydroxypropan-2-yl)-N-(5-(3-hydroxypyrrolidin-1-yl)thiazolo[5,4-b]pyridin-2-yl)benzamide], above 1000 nM.

Take `CC(C)(O)c1ccc(C(=O)Nc2nc3ccc(N4CCCC4)nc3s2)cc1` [Compound 8, 4-(2-hydroxypropan-2-yl)-N-(5-(pyrrolidin-1-yl)thiazolo[5,4-b]pyridin-2-yl)benzamide]: the half-inhibitory concentration (IC50) was above 1000 nM.

Turning to `Cc1n[nH]cc1-c1ccc2nc(NC(=O)c3ccc(C(C)(C)CO)cc3)sc2n1` [Compound 21, 4-(1-hydroxy-2-methylpropan-2-yl)-N-(5-(3-methyl-1H-pyrazol-4-yl)thiazolo[5,4-b]pyridin-2-yl)benzamide], the IC50 is below 100 nM. With `CC(C)(CO)c1ccc(C(=O)Nc2nc3ccc(-c4ccc(O)nc4)nc3s2)cc1` [Compound 33, 4-(1-hydroxy-2-methylpropan-2-yl)-N-(5-(6-hydroxypyridin-3-yl)thiazolo[5,4-b]pyridin-2-yl)benzamide], the IC50 was below 100 nM. Still for that read-out and setting: as for `Cc1cnccc1-c1ccc2nc(NC(=O)c3ccc(C(C)(C)CO)cc3)sc2n1` [Compound 26, 4-(1-hydroxy-2-methylpropan-2-yl)-N-(5-(3-methylpyridin-4-yl)thiazolo[5,4-b]pyridin-2-yl)benzamide], the figure is 100 to 1000 nM. As for `CC(C)(O)c1ccc(C(=O)Nc2nc3ccc(-n4ccnc4)nc3s2)cc1` [Compound 7, N-(5-(1H-imidazol-1-yl)thiazolo[5,4-b]pyridin-2-yl)-4-(2-hydroxypropan-2-yl)benzamide], the half-maximal inhibitory concentration (IC50) lay in the range of 100 to 1000 nM. The same measure, in the same setting: next, `COC(=O)c1ccc(C(=O)Nc2nc3ccc(-c4c[nH]nc4C)nc3s2)cc1` [Compound 20, methyl 4-(5-(3-methyl-1H-pyrazol-4-yl)thiazolo[5,4-b]pyridin-2-ylcarbamoyl)benzoate]: above 1000 nM; `CC(C)(O)c1ccc(C(=O)Nc2nc3ccc(-c4cn[nH]c4)nc3s2)cc1` [Compound 12, N-(5-(1H-pyrazol-4-yl)thiazolo[5,4-b]pyridin-2-yl)-4-(2-hydroxypropan-2-yl)benzamide]: below 100 nM; `CC(C)(C)c1ccc(C(=O)Nc2nc3ccc(-c4ccncc4)nc3s2)cc1` [Compound 10, 4-tert-butyl-N-(5-(pyridin-4-yl)thiazolo[5,4-b]pyridin-2-yl)benzamide]: 100 to 1000 nM. For `Cc1n[nH]cc1-c1ccc2nc(NC(=O)c3ccc(C(C)(C)O)cc3)sc2n1` [Compound 15, 4-(2-hydroxypropan-2-yl)-N-(5-(3-methyl-1H-pyrazol-4-yl)thiazolo[5,4-b]pyridin-2-yl)benzamide], the IC50 was below 100 nM. Turning to `Cc1n[nH]c(C)c1-c1ccc2nc(NC(=O)c3ccc(C(C)(C)O)cc3)sc2n1` [Compound 14, N-(5-(3,5-dimethyl-1H-pyrazol-4-yl)thiazolo[5,4-b]pyridin-2-yl)-4-(2-hydroxypropan-2-yl)benzamide], the IC50 lay within 100 to 1000 nM. With `CCc1nccn1-c1ccc2nc(NC(=O)c3ccc(C(C)(C)O)cc3)sc2n1` [Compound 22, N-(5-(2-ethyl-1H-imidazol-1-yl)thiazolo[5,4-b]pyridin-2-yl)-4-(2-hydroxypropan-2-yl)benzamide], the IC50 is above 1000 nM. For the molecule `Cn1cc(-c2ccc3nc(NC(=O)c4ccc(C(C)(C)O)cc4)sc3n2)cn1` [Compound 19, 4-(2-hydroxypropan-2-yl)-N-(5-(1-methyl-1H-pyrazol-4-yl)thiazolo[5,4-b]pyridin-2-yl)benzamide], the IC50 was 100 to 1000 nM.

Turning to `CC(C)(O)c1ccc(C(=O)Nc2nc3ccc(-c4ccncc4)nc3s2)cc1` [Compound 30, 4-(2-hydroxypropan-2-yl)-N-(5-(pyridin-4-yl)thiazolo[5,4-b]pyridin-2-yl)benzamide], the IC50 is 100 to 1000 nM. With `CC(C)(CO)c1ccc(C(=O)Nc2nc3ccc(-c4ccncc4)nc3s2)cc1` [Compound 34, 4-(1-hydroxy-2-methylpropan-2-yl)-N-(5-(pyridin-4-yl)thiazolo[5,4-b]pyridin-2-yl)benzamide], the IC50 was 100 to 1000 nM. Regarding `CC(C)(O)c1ccc(C(=O)Nc2nc3ccc(N4CCCCC4)nc3s2)cc1` [Compound 38, 4-(2-hydroxypropan-2-yl)-N-(5-(piperidin-1-yl)thiazolo[5,4-b]pyridin-2-yl)benzamide], the IC50 is above 1000 nM.

In the case of `CC(C)(CO)c1ccc(C(=O)Nc2nc3ccc(-c4cn[nH]c4)nc3s2)cc1` [Compound 13, N-(5-(1H-pyrazol-4-yl)thiazolo[5,4-b]pyridin-2-yl)-4-(1-hydroxy-2-methylpropan-2-yl)benzamide], the half-maximal inhibitory concentration (IC50) was below 100 nM.

Still in this assay, the particulars now being: assay described in Example B, read-out: IC50 value.
Consider `CC(C)(O)c1ccc(C(=O)Nc2nc3ccc(-c4ccncc4)nc3s2)cc1` [Compound 30, 4-(2-hydroxypropan-2-yl)-N-(5-(pyridin-4-yl)thiazolo[5,4-b]pyridin-2-yl)benzamide], for which the IC50 was 310 nM.
